The values below come from ChEMBL document CHEMBL4811298, “Discovery of novel class of histone deacetylase inhibitors as potential anticancer agents” (Bioorg Med Chem, 2021).

Active and inactive are the calls of the source. No cut-off for these calls is given here.

In series [1] the test system is MCF7. The series is described as follows: Downregulation of SIRT2 gene expression in human MCF7 cells at 3 uM incubated for 24 hrs by whole transcriptome analysis. It is filed as functional, cell-based.
For series [2], the species on record is Homo sapiens. The series is described as follows: Selectivity ratio of IC50 for inhibition of N-terminal GST-tagged/C-terminal His-tagged human recombinant HDAC4 (627 to 1084 residues) expressed in baculovirus-infected Sf9 cells to IC50 for inhibition of C-terminal 6XHis-tagged human recombinant full length HDAC2 (1 to 488 residues) expressed in baculovirus-infected Sf9 cells.

The test system of series [3] is MCF7. The series is described as follows: Induction of apoptosis in human MCF7 cells assessed as reduction in Bcl2 gene expression at 3 uM incubated for 24 hrs by whole transcriptome analysis. Format: functional, cell-based.
In a further series the target is Histone deacetylase 1 (Homo sapiens, UniProt Q13547). The series is described as follows: Inhibition of C-terminal FLAG/His-tagged human recombinant HDAC1 (1 to 482 residues) expressed in baculovirus-infected Sf9 cells assessed as reduction in 7-amino-4-methylcoumarin release using fluorogenic HDAC substrate 3 measured every 5 mins by fluorescence based analysis.
Histone deacetylase 1, sequence (Q13547 whole entry, the tested form may be a part): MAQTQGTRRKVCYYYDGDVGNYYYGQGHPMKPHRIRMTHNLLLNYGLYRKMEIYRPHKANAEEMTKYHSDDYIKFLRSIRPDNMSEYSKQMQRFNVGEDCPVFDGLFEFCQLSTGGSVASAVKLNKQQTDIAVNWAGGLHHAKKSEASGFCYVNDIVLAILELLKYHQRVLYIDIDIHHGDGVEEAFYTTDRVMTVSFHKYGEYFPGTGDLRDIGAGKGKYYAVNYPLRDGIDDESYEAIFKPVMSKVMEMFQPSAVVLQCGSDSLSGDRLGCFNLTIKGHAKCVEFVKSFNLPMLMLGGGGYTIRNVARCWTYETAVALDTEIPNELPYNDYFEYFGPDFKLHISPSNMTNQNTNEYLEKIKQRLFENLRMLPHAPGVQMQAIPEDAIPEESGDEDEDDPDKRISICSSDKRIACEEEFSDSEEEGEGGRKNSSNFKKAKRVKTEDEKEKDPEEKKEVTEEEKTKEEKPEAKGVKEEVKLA

Series [4] is described as follows: Downregulation of HDAC1 gene expression in human MCF7 cells at 3 uM incubated for 24 hrs by whole transcriptome analysis relative to control. It is filed as functional.
The next series deals with Histone deacetylase 2 (Homo sapiens, UniProt Q92769). It is filed as cell-based, Sf9.
Histone deacetylase 2, sequence (Q92769 whole entry): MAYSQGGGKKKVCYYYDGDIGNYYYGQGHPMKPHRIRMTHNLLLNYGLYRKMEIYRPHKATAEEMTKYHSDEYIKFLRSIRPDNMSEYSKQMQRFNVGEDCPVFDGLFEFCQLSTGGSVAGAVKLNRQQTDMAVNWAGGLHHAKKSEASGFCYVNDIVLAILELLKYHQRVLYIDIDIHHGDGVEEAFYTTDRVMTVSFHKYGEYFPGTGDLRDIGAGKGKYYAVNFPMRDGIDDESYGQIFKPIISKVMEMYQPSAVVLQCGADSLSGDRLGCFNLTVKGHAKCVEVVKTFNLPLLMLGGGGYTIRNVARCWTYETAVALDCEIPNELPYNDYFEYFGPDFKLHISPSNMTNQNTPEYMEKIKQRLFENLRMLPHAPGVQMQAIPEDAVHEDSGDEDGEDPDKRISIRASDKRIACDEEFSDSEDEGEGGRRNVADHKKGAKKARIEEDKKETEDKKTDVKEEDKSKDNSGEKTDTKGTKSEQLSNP
Series [5] in a line: Downregulation of HDAC3 gene expression in human MCF7 cells at 3 uM incubated for 24 hrs by whole transcriptome analysis relative to control. It is filed as functional.
Series [6] deals with MCF7. The series is described as follows: Induction of apoptosis in human MCF7 cells assessed as downregulation of c-Myc gene expression at 1 uM measured after 24 hrs whole transcriptome analysis. It is filed as functional, cell-based.
The next series deals with A549. The series is described as follows: Antiproliferative activity against human A549 cells assessed as reduction in cell viability incubated for 48 hrs by SRB assay. Format: functional, cell-based. Particulars: A549, 48 h.
The species entered for series [7] is Homo sapiens. The series is described as follows: Selectivity ratio of IC50 for inhibition of N-terminal GST-tagged human HDAC7 (518 to end residues) expressed in baculovirus-infected Sf9 cells to IC50 for inhibition of C-terminal FLAG/His-tagged human recombinant HDAC1 (1 to 482 residues) expressed in baculovirus-infected Sf9 cells.
For another series, the target named is Cytochrome P450 3A4 (Homo sapiens, UniProt P08684). The series is described as follows: Inhibition of human CYP3A4 expressed in insect supersomes assessed as reduction in […] formation using midazolam as substrate measured after 30 mins in presence of NADPH by LC-MS/MS analysis. Format: ADME.
Cytochrome P450 3A4, sequence (P08684 whole entry): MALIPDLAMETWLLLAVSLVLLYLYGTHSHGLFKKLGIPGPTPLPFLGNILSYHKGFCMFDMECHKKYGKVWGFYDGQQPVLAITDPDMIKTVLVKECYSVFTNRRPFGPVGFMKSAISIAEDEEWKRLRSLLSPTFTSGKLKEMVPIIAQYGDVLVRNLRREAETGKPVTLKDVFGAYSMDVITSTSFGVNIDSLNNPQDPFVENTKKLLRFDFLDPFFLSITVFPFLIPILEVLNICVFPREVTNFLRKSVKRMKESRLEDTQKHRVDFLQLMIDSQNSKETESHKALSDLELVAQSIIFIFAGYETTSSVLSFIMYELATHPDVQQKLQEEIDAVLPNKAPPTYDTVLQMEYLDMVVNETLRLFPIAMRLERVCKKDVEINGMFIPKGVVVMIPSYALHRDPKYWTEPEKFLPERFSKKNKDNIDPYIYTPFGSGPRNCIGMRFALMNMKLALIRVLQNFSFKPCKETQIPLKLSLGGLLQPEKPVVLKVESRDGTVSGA
In series [8] the test system is MCF7. The series is described as follows: Induction of cell cycle arrest in human MCF7 cells assessed downregulation of CDK2 gene expression at 3 uM incubated for 24 hrs by whole transcriptome analysis. It is filed as functional, cell-based.
Series [9] relates to MCF7. The series is described as follows: Downregulation of SIRT4 gene expression in human MCF7 cells at 3 uM incubated for 24 hrs by whole transcriptome analysis. It is filed as functional, cell-based.
Series [10] has as its system MCF7. The series is described as follows: Antiproliferative activity against human MCF7 cells assessed as reduction in cell viability incubated for 48 hrs by SRB assay. Format: functional, cell-based. Conditions: MCF7, 48 h.
In series [11] the test system is MCF7. The series is described as follows: Induction of cell cycle arrest in human MCF7 cells assessed downregulation of CDK1 gene expression at 3 uM incubated for 24 hrs by whole transcriptome analysis. Format: functional, cell-based.
Series [12] relates to MCF7. The series is described as follows: Induction of cell cycle arrest in human MCF7 cells assessed downregulation of CDK6 gene expression at 3 uM incubated for 24 hrs by whole transcriptome analysis. It is filed as functional, cell-based.
For series [13], the species on record is Homo sapiens. The series is described as follows: Selectivity ratio of IC50 for inhibition of C-terminal His-tagged human recombinant full length HDAC3 (1 to 428 residues)/N-terminal GST-tagged human recombinant NCOR2 (395 to 489 residues) expressed in baculovirus-infected Sf9 cells to IC50 for inhibition of C-terminal FLAG/His-tagged human recombinant HDAC1 (1 to 482 residues) expressed in baculovirus-infected Sf9 cells.

Series [14] is filed under the species Homo sapiens. The series is described as follows: Selectivity ratio of IC50 for inhibition of C-terminal His-tagged human HDAC9 (604 to 1066 residues) expressed in baculovirus-infected Sf9 cells to IC50 for inhibition of C-terminal 6XHis-tagged human recombinant full length HDAC2 (1 to 488 residues) expressed in baculovirus-infected Sf9 cells.
Series [15] can be described thus: Half life in human liver microsomes at 1 uM measured after 60 mins in presence of NADPH by LC-MS/MS analysis. It is filed as ADME, Microsome.
The subject of series [16] is MCF7. The series is described as follows: Downregulation of NFkB2 gene expression in human MCF7 cells at 3 uM incubated for 24 hrs by whole transcriptome analysis. It is filed as functional, cell-based.
Series [17] deals with MCF7. The series is described as follows: Induction of apoptosis in human MCF7 cells assessed as increase in caspase 3/7 activity at 1 to 3 uM measured after 48 hrs by ELISA. It is filed as functional, cell-based. Particulars: dose 1-3 µM.
The target in a further series is Cytochrome P450 2C9 (Homo sapiens, UniProt P11712). The series is described as follows: Inhibition of human CYP2C9-1 expressed in insect supersomes assessed as reduction in HFC formation using MFC as substrate measured after 30 mins in presence of NADPH by fluorescence based analysis. Format: ADME.
Cytochrome P450 2C9, sequence (P11712 whole entry): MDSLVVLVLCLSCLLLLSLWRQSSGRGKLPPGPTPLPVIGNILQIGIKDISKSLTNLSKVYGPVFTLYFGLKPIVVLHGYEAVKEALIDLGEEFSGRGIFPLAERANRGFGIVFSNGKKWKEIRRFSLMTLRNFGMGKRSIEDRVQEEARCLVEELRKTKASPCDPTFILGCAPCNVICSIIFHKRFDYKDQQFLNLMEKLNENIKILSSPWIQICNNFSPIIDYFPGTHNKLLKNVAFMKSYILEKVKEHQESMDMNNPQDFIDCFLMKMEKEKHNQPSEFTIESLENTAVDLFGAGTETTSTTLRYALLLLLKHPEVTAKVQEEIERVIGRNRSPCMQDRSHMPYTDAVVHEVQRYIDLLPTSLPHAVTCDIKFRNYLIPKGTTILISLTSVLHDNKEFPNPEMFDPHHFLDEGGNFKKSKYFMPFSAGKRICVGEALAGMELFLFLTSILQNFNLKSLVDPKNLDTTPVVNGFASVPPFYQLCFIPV
Series [18] relates to MCF7. The series is described as follows: Induction of cell cycle arrest in human MCF7 cells assessed downregulation of CDK4 gene expression at 3 uM incubated for 24 hrs by whole transcriptome analysis. It is filed as functional, cell-based.

For `N=C(NO)c1ccc2nc(-c3cccc(-c4cn5ccccc5n4)c3)[nH]c2c1`, the inhibition result in the series on MCF7 [1], with MCF7 [9] and in the series with MCF7 [16] was “Active” each time. Further, the Ratio IC50 in the series filed under Homo sapiens [2], in the series listed under Homo sapiens [7], in the series filed under Homo sapiens [13] and in the series filed under Homo sapiens [14] was > 44 throughout. Besides, the outcome with MCF7 [3], in the series on MCF7 [6], in the series on MCF7 [8], in the series on MCF7 [11], in the series on MCF7 [12] and with MCF7 [17] was Active. Moreover, in the series with MCF7 [18], the outcome was Active. For the same compound, the IC50 was 550 nM at Histone deacetylase 1; 400 nM against Histone deacetylase 2; 200 nM in the series on A549; 233 nM at Cytochrome P450 3A4; 2000 nM in the series on MCF7 [10]; > 10000 nM on Cytochrome P450 2C9. Besides, the entries for the “fold change (FC)” value in series [4] and in series [5] were 3.2 and 2.2, respectively. Further, in series [15], the half-life at 1 µM was 7.1 min.
